Columns and labels:
[1] = tested on: SUM-159PT cells; test: Mammosphere formation after paclitaxel pre-treatment; type: cell-based; conditions: 8 nM Paclitaxel or 8 nM Paclitaxel plus 5 μM B591 for 24 h
Protocol: (§1) Fig. 6 B591 reduces breast tumor metastasis and recurrence. a Representative images show the effect of B591 (8 mg/kg) on lung metastasis of 4T1 cells, and data from six mice were plotted. b SUM-159PT cells were respectively treated with the indicated agents (8 nM Paclitaxel, 8 nM Paclitaxel plus 5 μM B591) for 24 h, the cells were then cultured for mammospheres. Representative images were shown, and data from two independent experiments were plotted. c–f SUM-159PT xenografts (n = 7) were treated with 4 mg/kg Paclitaxel, or 10 mg/kg B591, or both for 2 weeks, then ended the treatment and waited for tumor recurrence. Tumor volume (c) and body weight (d) were measured every 2 days after treatment, and tumors were photographed (e) and weighted (f) at the end of the experiment. ^*p < 0.05, ^**p < 0.01 versus indicated groups
Based on the finding that B591 preferentially targets CSCs, we supposed that by eliminating the breast CSCs, B591 might delay breast tumor recurrence after initial treatment with chemotherapy drugs. Paclitaxel is a first-line chemotherapeutic agent used for breast cancer therapy. SUM-159PT cells were pre-treated with paclitaxel, and then the cells remaining alive were cultured for mammospheres.

[2] = tested on: MDA-MB-231 orthotopic xenografts; test: MDA-MB-231 orthotopic xenograft; type: in vivo, NOD/SCID mice; conditions: for Decrease of tumor burden (determined by volume): versus vehicle
Protocol: Then we evaluated the inhibitory effect of B591 on CSCs by in vivo xenograft assay (Fig. 5a). B591 (4 or 16 mg/kg) was given to the NOD/SCID mice bearing orthotopic xenografts of human breast cancer MDA-MB-231 cells for 2 weeks. […] The inhibition of PI3K/mTOR pathway by B591 in tumors was further confirmed by western blot analysis.
In MDA-MB-231 xenografts experiment, 1 × 10^6 cells were incubated into the mammary fat pad of mice orthotopically. When the volume of tumor reached above 50 mm^3, the mice were randomly divided into three groups for introperitoneal (i.p.) injection with vehicle, 4 mg/kg and 16 mg/kg B591. The tumor volume and the body weight of mice were measured during the 2-weeks treatment. In the end of treatment, the mice were killed, and the tumor tissues were dissected and dissociated into single cell suspension with Dispase II (Roche, Basel, Switzerland) according with the manufacture’s protocol. Then these single cells were used for CSCs phenotype assay, ALDH activity assay, mammosphere formation assay and limiting dilution assay in vivo as described above.

[3] = tested on: SUM-159PT orthotopic xenografts; test: Tumor recurrence study in SUM-159PT xenografts; type: in vivo, NOD/SCID mice; conditions: B591 10 mg/kg
Protocol: as §1
In the tumor recurrence study, orthotopic xenografts were established with 5 × 10^6 SUM-159PT cells. When tumor volume reached about 50 mm^3, mice were randomly divided into four groups for treatment with vehicle, 4 mg/kg Paclitaxel, 10 mg/kg B591, and combination of 4 mg/kg Paclitaxel plus 10 mg/kg B591 (i.p.). Treatment was stopped after 2 weeks, and the tumors were allowed for recurrence for 3 weeks. Tumor volume and the body weight of mice were measured during the experiments. In the end of treatment, the mice were killed, and the tumor tissues were dissected and weighted.

[4] = tested on: MDA-MB-231 and SUM-159PT monolayer and mammosphere cells; test: Proliferation inhibition of monolayer versus mammosphere cells; type: cell-based, human
Protocol: The proliferation inhibitory activities of B591 were compared between monolayer and mammosphere cells.
Cells were treated with indicated agents for 48 h, and cells were harvested and processed for apoptosis assay using the PE-Annexin V/7-AAD Apoptosis Detection Kit. d Representative flow cytometry plots of apoptosis inducing activity of B591 (10 μM) and paclitaxel (10 nM) on monolayer and mammosphere MDA-MB-231 cells. e B591 preferentially targeted CD44^high/CD24^low cells. Cells were treated with B591 or paclitaxel for 2 days. Following a 4-day recovery period, cells were co-stained with CD44 and CD24 antibodies and subjected to FACS analysis. Representative flow cytometry plots show the effect of B591 on CD44^high/CD24^low population in MDA-MB-231 cells in vitro. f B591 decreased mammosphere forming efficiency. Primary MDA-MB-231 mammospheres were treated with B591 or paclitaxel for 48 h. Results of the secondary mammosphere-formation assay are shown. Scale bar represents 40 μm. g B591 decreased the expression of CSC markers in MDA-MB-231 cells. Cells were treated with B591 or paclitaxel for 2 days. […] They label a gated population in plots with axes CD44 and CD24. / Panel E: DMSO is the vehicle control. Its printed value is included all the same.

[5] = tested on: PIP3/PI(4,5)P2 ratio in HCT116 cells; test: Cellular PI3K kinase assay (PIP3 and PI(4,5)P2 ELISA); type: cell-based; conditions: 10 h treatment
Protocol: Cells were seeded at density of 3 × 10^7 cells/150 mm dish. After treatment with different concentrations of B591 for 10 h, the media was removed and 10 ml of ice-cold 0.5 M TCA was immediately added. Incubate cells on ice for 5 min. Cells were scraped and centrifuged at 3000 rpm for 7 min at 4 ℃. The pellet was resuspended in 3 ml of 5% […] acid/1 mM EDTA, vortexed for 30 s, and centrifuged at 3000 rpm for 5 min. The supernatant was discarded and the cells was washed one more time. Afterward, neutral lipids were extracted adding 3 ml of MeOH:CHCl3 (2:1) and continuously vortexing for 10 min at room temperature. Extracts were centrifuged at 3000 rpm for 5 min, the supernatant was discarded, and this extraction step was repeated one more time. The acidic lipids were extracted adding 2.25 ml MeOH:CHCl3:12 M HCl (80:40:1) with continuous vortexing over 25 min at room temperature. Extracts were centrifuged at 3000 rpm for 5 min and the supernatant was transferred to a new 15 ml tube; 0.75 ml of CHCl3 and 1.35 ml of 0.1 M HCl were added to the supernatant, vortexed, and centrifuged at 3000 rpm for 5 min to separate organic and aqueous phases. […] Once phospholipids were isolated from cells, PIP3 and PI(4,5)P2 levels were measured using ELISA kits (Echelon, K-2500s and K4500) according to the manufacturer’s instructions.

## Cc1cc2c(cc1C)[n+](Cc1ccccc1Br)cn2Cc1ccc2c(c1)CCO2.[Br-] [B591, 3-(2-bromobenzyl)-1-((2,3-dihydrobenzofuran-5-yl)methyl) -5,6-dimethyl-1H-benzo[d]imidazol-3-ium bromide]
[1]
  Formation of mammospheres / paclitaxel-enriched CSCs: the paclitaxel-enriched CSCs were effectively eliminated
[2]; 4 mg/kg i.p., 2 weeks
  Decrease of tumor burden (determined by volume): 40%
[2]; 16 mg/kg i.p., 2 weeks
  Inhibition based on final tumor weights: 70.7%
  Decrease of tumor burden (determined by volume): 60%
[2]; 4 or 16 mg/kg, 2 weeks
  Body weight: no significant body weight loss
[2]; tumors dissociated at end of treatment
  CD44high/CD24low and ALDHhigh breast CSCs populations in xenograft tumors: significantly reduced
[3]; with or without paclitaxel 4 mg/kg
  Body weight: no significant body weight loss
[3]; paclitaxel 4 mg/kg, i.p., 2 weeks, then 3 weeks recurrence
  Tumor growth and regrowth after end of treatment: significant inhibition of tumor growth and notably delayed the relapse of breast cancer following cessation of paclitaxel treatment
[4]
  Proliferation inhibitory activity, mammosphere versus monolayer cells: more potent against mammosphere cells
[5]
  IC50 for decrease of PIP3/PI(4,5)P2 ratio: 1.910 µmol/L

From article PMC6756013, “B591, a novel specific pan-PI3K inhibitor, preferentially targets cancer stem cells” (Oncogene, 2019)
